In patent US4677100A, “Cephalosporin derivatives” (Banyu Pharmaceutical Co., Ltd., priority 1984, dated 1987):
Converted amounts (≈) assume the structure as drawn.

Columns and labels:
P. aeruginosa AK109 = experiment: MIC, agar plate dilution method; assay type: cell-based, Pseudomonas aeruginosa; details: Pseudomonas aeruginosa; P. aeruginosa AK109; 10^6 CFU/ml; Sensitivity Disk Agar; read-out: Minimum Inhibitory Concentration
Procedure, shortened: (§1)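 Testing used Sensitivity Disk Agar plates containing graded compound levels and inoculated at 10^6 CFU/ml. Reference drugs cefotaxime and ceftazidime were tested in parallel, and results are given as MIC (μg/ml).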

P. aeruginosa AKR17 = experiment: MIC, agar plate dilution method; assay type: cell-based, Pseudomonas aeruginosa; details: Pseudomonas aeruginosa; P. aeruginosa AKR17; 10^6 CFU/ml; Sensitivity Disk Agar; read-out: Minimum Inhibitory Concentration
Procedure, shortened: as §1

Gram-negative bacteria = details: background of the art; cited from earlier work
P. maltophilia IID 1275 = experiment: MIC, agar plate dilution method; assay type: cell-based, Pseudomonas maltophilia; details: Stenotrophomonas maltophilia, IID1275; P. maltophilia IID 1275; 10^6 CFU/ml; Sensitivity Disk Agar; read-out: Minimum Inhibitory Concentration
Procedure, shortened: as §1

P. cepacia 23 = experiment: MIC, agar plate dilution method; assay type: cell-based, Pseudomonas cepacia; details: Burkholderia cepacia; P. cepacia 23; 10^6 CFU/ml; Sensitivity Disk Agar; read-out: Minimum Inhibitory Concentration
Procedure, shortened: as §1

Gram-positive bacteria = details: background of the art; cited from earlier work
K. pneumoniae No. 42 = experiment: MIC, agar plate dilution method; assay type: cell-based; details: Klebsiella pneumoniae; K. pneumoniae No. 42; 10^6 CFU/ml; Sensitivity Disk Agar; read-out: Minimum Inhibitory Concentration
Procedure, shortened: as §1

P. vulgaris No. 33 = experiment: MIC, agar plate dilution method; assay type: cell-based; details: Proteus vulgaris; P. vulgaris No. 33; 10^6 CFU/ml; Sensitivity Disk Agar; read-out: Minimum Inhibitory Concentration
Procedure, shortened: as §1

E. coli ML1410/Rte16 = experiment: MIC, agar plate dilution method; assay type: cell-based; details: Escherichia coli, ML1410/RTE16, read-out: Minimum Inhibitory Concentration
Procedure, shortened: (§2)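 MIC values (μg/ml) were determined by agar plate dilution on Sensitivity Disk Agar with an inoculum of 10^6 CFU/ml. Cefotaxime and ceftazidime were run alongside as comparators.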

E. cloaceae Nek 39 = experiment: MIC, agar plate dilution method; assay type: cell-based; details: E. cloaceae Nek 39; 10^6 CFU/ml; Sensitivity Disk Agar; read-out: Minimum Inhibitory Concentration
Procedure, shortened: as §1

E. coli W3630/Rms213 = experiment: MIC, agar plate dilution method; assay type: cell-based
Procedure, shortened: as §2

S. aureus JS-1 = experiment: MIC, agar plate dilution method; assay type: cell-based; details: Staphylococcus aureus, JS1; S. aureus JS-1; 10^6 CFU/ml; Sensitivity Disk Agar; read-out: Minimum Inhibitory Concentration
Procedure, shortened: as §1

E. coli CSH2 = experiment: MIC, agar plate dilution method; assay type: cell-based; details: Escherichia coli, 10^6 CFU/ml, Sensitivity Disk Agar, read-out: Minimum Inhibitory Concentration
Procedure, shortened: as §1

S. aureus NIHJJC-1 = experiment: MIC, agar plate dilution method; assay type: cell-based; details: Staphylococcus aureus, NIHJJC1; S. aureus NIHJJC-1; 10^6 CFU/ml; Sensitivity Disk Agar; read-out: Minimum Inhibitory Concentration
Procedure, shortened: as §1

E. coli W3630/Rms212 = experiment: MIC, agar plate dilution method; assay type: cell-based
Procedure, shortened: as §2

P. vulgaris OB1043 = experiment: MIC, agar plate dilution method; assay type: cell-based; details: Proteus vulgaris; P. vulgaris OB1043; 10^6 CFU/ml; Sensitivity Disk Agar; read-out: Minimum Inhibitory Concentration
Procedure, shortened: as §1

S. marcescens No. 16-2 = experiment: MIC, agar plate dilution method; assay type: cell-based; details: Serratia marcescens, NO.162; S. marcescens No. 16-2; 10^6 CFU/ml; Sensitivity Disk Agar; read-out: Minimum Inhibitory Concentration
Procedure, shortened: as §1

E. coli CSH = experiment: MIC, agar plate dilution method; assay type: cell-based
Procedure, shortened: as §2

P. mirabilis JY10 = experiment: MIC, agar plate dilution method; assay type: cell-based; details: Proteus mirabilis; P. mirabilis JY10; 10^6 CFU/ml; Sensitivity Disk Agar; read-out: Minimum Inhibitory Concentration
Procedure, shortened: as §1

E. coli NIHJJC-2 = experiment: MIC, agar plate dilution method; assay type: cell-based; details: Escherichia coli, NIHJJC2; E. coli NIHJJC-2; 10^6 CFU/ml; Sensitivity Disk Agar; read-out: Minimum Inhibitory Concentration
Procedure, shortened: as §1

C. freundii No. 7 = experiment: MIC, agar plate dilution method; assay type: cell-based; details: Citrobacter freundii; C. freundii No. 7; 10^6 CFU/ml; Sensitivity Disk Agar; read-out: Minimum Inhibitory Concentration
Procedure, shortened: as §1

A. calcoaceticus No. 14 = experiment: MIC, agar plate dilution method; assay type: cell-based; details: Acinetobacter calcoaceticus; A. calcoaceticus No. 14; 10^6 CFU/ml; Sensitivity Disk Agar; read-out: Minimum Inhibitory Concentration
Procedure, shortened: as §1

E. coli C/Rms149 = experiment: MIC, agar plate dilution method; assay type: cell-based; details: Escherichia coli, read-out: Minimum Inhibitory Concentration
Procedure, shortened: as §2

[1] = system: Gram-positive bacteria and Gram-negative bacteria; details: background of the art; cited from earlier work

CO/N=C(\C(=O)N[C@@H]1C(=O)N2C(C(=O)O)=C(COC(C)=O)CS[C@H]12)c1csc(N)n1 [Cefotaxime, reference compound]
MIC (P. aeruginosa AK109): 6.25 µg/mL (≈ 13.7 µM) | MIC (P. aeruginosa AKR17): > 25 µg/mL | antibacterial activity (in words) (Gram-negative bacteria): excellent activities | MIC (P. maltophilia IID 1275): > 25 µg/mL | MIC (P. cepacia 23): 3.12 µg/mL (≈ 6.85 µM) | antibacterial activity (in words) (Gram-positive bacteria): relatively poor antibacterial activities | MIC (K. pneumoniae No. 42): ≤ 0.05 µg/mL | MIC (P. vulgaris No. 33): ≤ 0.05 µg/mL | MIC (E. coli ML1410/Rte16): ≤ 0.05 µg/mL | MIC (E. cloaceae Nek 39): 0.78 µg/mL (≈ 1.71 µM) | Minimum Inhibitory Concentration (E. coli W3630/Rms213; E. coli W3630/Rms213, 10^6 CFU/ml, Sensitivity Disk Agar): 0.20 µg/mL | MIC (E. coli W3630/Rms213; Escherichia coli, W3630/RMS213, read-out: Minimum Inhibitory Concentration): 0.2 µg/mL (≈ 0.439 µM) | MIC (S. aureus JS-1): 6.25 µg/mL (≈ 13.7 µM) | MIC (E. coli CSH2): ≤ 0.05 µg/mL | MIC (S. aureus NIHJJC-1): 0.78 µg/mL (≈ 1.71 µM) | Minimum Inhibitory Concentration (E. coli W3630/Rms212; E. coli W3630/Rms212, 10^6 CFU/ml, Sensitivity Disk Agar): 0.10 µg/mL | MIC (E. coli W3630/Rms212; Escherichia coli, W3630/RMS212, read-out: Minimum Inhibitory Concentration): 0.1 µg/mL (≈ 0.22 µM) | MIC (P. vulgaris OB1043): 0.39 µg/mL (≈ 0.856 µM) | MIC (S. marcescens No. 16-2): 6.25 µg/mL (≈ 13.7 µM) | Minimum Inhibitory Concentration (E. coli CSH; E. coli CSH, 10^6 CFU/ml, Sensitivity Disk Agar): 0.10 µg/mL | MIC (E. coli CSH; Escherichia coli, read-out: Minimum Inhibitory Concentration): 0.1 µg/mL (≈ 0.22 µM) | MIC (P. mirabilis JY10): ≤ 0.05 µg/mL | MIC (E. coli NIHJJC-2): ≤ 0.05 µg/mL | MIC (C. freundii No. 7): 0.39 µg/mL (≈ 0.856 µM) | MIC (A. calcoaceticus No. 14): 25 µg/mL (≈ 54.9 µM) | MIC (E. coli C/Rms149): ≤ 0.05 µg/mL | antibacterial activity (in words) [1]: excellent antibacterial activities
